Results taken from US9587266B2, “Mutant luciferases” (University of Massachusetts, priority 2011, dated 2017).

Tests used:
[1] = target: T1, S347A luciferase (Photinus pyralis, UniProt P08659, S347A); test: Bioluminescence emission scan; format: biochemical
T1 construct: The full firefly (Photinus pyralis) luciferase gene was PCR amplified from pGL3 (Promega); GST (N, cleaved yes); made in house; host or cells: E. coli JM109
Protocol: (§1) Purified mutant luciferases were used in bioluminescence emission and burst kinetics scans.
(§2) Luciferase was rapidly injected into a cuvette containing substrate, and the emission from 400-800 nm was recorded in a SPEX FluoroMax-3 fluorimeter with closed excitation slits.

[2] = target: T2, F247R luciferase (Photinus pyralis, UniProt P08659, F247R); test: Bioluminescence emission scan; format: biochemical
T2 construct: The full firefly (Photinus pyralis) luciferase gene was PCR amplified from pGL3 (Promega); GST (N, cleaved yes); made in house; host or cells: E. coli JM109
Protocol: as §1, §2

[3] = target: T3, T251Q luciferase (Photinus pyralis, UniProt P08659, T251Q); test: Bioluminescence emission scan; format: biochemical
T3 construct: The full firefly (Photinus pyralis) luciferase gene was PCR amplified from pGL3 (Promega); GST (N, cleaved yes); made in house; host or cells: E. coli JM109
Protocol: as §1, §2

[4] = target: T4, T251S mutant luciferase in live CHO cells (Photinus pyralis, UniProt P08659, T251S); test: Intact cell assay, transfected CHO cells; format: cell-based
T4 construct: The full firefly (Photinus pyralis) luciferase gene was PCR amplified from pGL3 (Promega); expressed in transfected cells; host or cells: CHO cells
Protocol: (§3) The mutants were cloned into the BamHI-Not I site of pcDNA 3.1 and transfected into CHO cells for live and lysed cell experiments. CHO-cell transfections were performed using Lipofectamine 2000 in 96-well white tissue culture treated plates (Costar) for intact cell assays, or 6-well plates for lysed cell assays. For intact cells, 0.075 μg DNA/well was transfected. For lysed cells, 2.25 μg DNA/well was transfected and one full 6-well plate was transfected for each mutant. Assays were performed in triplicate 24 hours post-transfection.
(§4) Transfected CHO cells were washed with HBSS and overlaid with 60 μL substrate in HBSS.

[5] = target: T5, R218K mutant luciferase in live CHO cells (Photinus pyralis, UniProt P08659, R218K); test: Intact cell assay, transfected CHO cells; format: cell-based
T5 construct: The full firefly (Photinus pyralis) luciferase gene was PCR amplified from pGL3 (Promega); expressed in transfected cells; host or cells: CHO cells
Protocol: as §3, §4

T2 sequence (P08659 whole entry F247R): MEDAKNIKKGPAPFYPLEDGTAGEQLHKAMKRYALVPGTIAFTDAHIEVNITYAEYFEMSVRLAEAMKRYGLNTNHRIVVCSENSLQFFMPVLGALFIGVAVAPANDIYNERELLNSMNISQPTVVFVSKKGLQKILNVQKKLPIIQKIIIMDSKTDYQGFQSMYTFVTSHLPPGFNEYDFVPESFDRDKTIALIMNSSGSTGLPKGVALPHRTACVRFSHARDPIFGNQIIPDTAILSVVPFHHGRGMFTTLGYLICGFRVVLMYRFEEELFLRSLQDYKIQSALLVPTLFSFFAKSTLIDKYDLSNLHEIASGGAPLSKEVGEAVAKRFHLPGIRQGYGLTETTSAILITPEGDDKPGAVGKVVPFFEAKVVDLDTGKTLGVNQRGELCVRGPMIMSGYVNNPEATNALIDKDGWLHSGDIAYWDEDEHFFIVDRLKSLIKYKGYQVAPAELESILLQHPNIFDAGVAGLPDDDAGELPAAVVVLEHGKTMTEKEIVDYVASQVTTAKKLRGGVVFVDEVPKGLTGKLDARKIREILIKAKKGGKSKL
T3 sequence (P08659 whole entry T251Q): as the sequence (P08659 whole entry F247R) above, with R247F, T251Q counted along it
T1 sequence (P08659 whole entry S347A): as the sequence (P08659 whole entry F247R) above, with R247F, S347A counted along it
T4 sequence (P08659 whole entry T251S): as the sequence (P08659 whole entry F247R) above, with R247F, T251S counted along it
T5 sequence (P08659 whole entry R218K): as the sequence (P08659 whole entry F247R) above, with R218K, R247F counted along it

**Q.** With `O=C(O)[C@H]1CSC(c2nc3cc4c(cc3s2)NCC4)=N1` [CycLuc1] as the compound, how does the “Wavelength at Max. Emission” value [1] read?
**A.** The value was 597 nm.

**Q.** What about the “Wavelength at Max. Emission” value [2] of the same compound?
**A.** The value was 609 nm.

**Q.** What about the “Wavelength at Max. Emission” value [3] of the same compound?
**A.** Its value is 612 nm.

**Q.** And the “substrate concentrations at which light output was superior to D-luciferin” value [4]?
**A.** The value was less than 30 µM.

**Q.** And the “substrate concentrations at which light output was superior to D-luciferin” value [5]?
**A.** Its value is less than 30 µM.
